Reference: PubChem BioAssay (NCI)
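1) Cells in 96-well plates. 2) Compound, 48 h, 5 concentrations. 3) Linear interpolation between surrounding doses. 4) Unreached endpoint = highest concentration. TGI denotes the concentration required for complete inhibition of growth.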

Assays:
Assay in all cases: NCI tumour cell line growth inhibition, 48 h
OVCAR-8 ovarian = tested on: OVCAR-8 ovarian
SNB-75 CNS = tested on: SNB-75 CNS
NCI-H226 lung = tested on: NCI-H226 lung
SR leukemia = tested on: SR leukemia
786-0 renal = tested on: 786-0 renal
OVCAR-4 ovarian = tested on: OVCAR-4 ovarian
CCRF-CEM leukemia = tested on: CCRF-CEM leukemia
MOLT-4 leukemia = tested on: MOLT-4 leukemia
UACC-62 melanoma = tested on: UACC-62 melanoma
A498 renal = tested on: A498 renal
MDA-MB-231 breast = tested on: MDA-MB-231 breast
NCI-H23 lung = tested on: NCI-H23 lung
NCI-H522 lung = tested on: NCI-H522 lung
HS 578T breast = tested on: HS 578T breast
OVCAR-3 ovarian = tested on: OVCAR-3 ovarian
HCC-2998 colon = tested on: HCC-2998 colon
PC-3 prostate = tested on: PC-3 prostate
OVCAR-5 ovarian = tested on: OVCAR-5 ovarian
SNB-19 CNS = tested on: SNB-19 CNS
SK-OV-3 ovarian = tested on: SK-OV-3 ovarian
UO-31 renal = tested on: UO-31 renal
NCI-H460 lung = tested on: NCI-H460 lung
ACHN renal = tested on: ACHN renal
MDA-N = tested on: MDA-N
HOP-92 NSCLC = tested on: HOP-92 NSCLC
RXF 393 renal = tested on: RXF 393 renal
IGROV1 ovarian = tested on: IGROV1 ovarian
MCF7 breast = tested on: MCF7 breast
M14 melanoma = tested on: M14 melanoma
U251 CNS = tested on: U251 CNS
MDA-MB-435 = tested on: MDA-MB-435
HCT-116 colon = tested on: HCT-116 colon
A549 NSCLC = tested on: A549 NSCLC
HCT-15 colon = tested on: HCT-15 colon
CAKI-1 renal = tested on: CAKI-1 renal
BT-549 breast = tested on: BT-549 breast
SK-MEL-28 melanoma = tested on: SK-MEL-28 melanoma
SF-295 CNS = tested on: SF-295 CNS
UACC-257 melanoma = tested on: UACC-257 melanoma
KM12 colon = tested on: KM12 colon
SF-539 CNS = tested on: SF-539 CNS
MALME-3M melanoma = tested on: MALME-3M melanoma
SW-620 colon = tested on: SW-620 colon
T-47D breast = tested on: T-47D breast
DU-145 prostate = tested on: DU-145 prostate
COLO 205 colon = tested on: COLO 205 colon
EKVX NSCLC = tested on: EKVX NSCLC
K-562 leukemia = tested on: K-562 leukemia
TK-10 renal = tested on: TK-10 renal
SK-MEL-5 melanoma = tested on: SK-MEL-5 melanoma
HT29 colon = tested on: HT29 colon
SN12C renal = tested on: SN12C renal
NCI/ADR-RES ovarian = tested on: NCI/ADR-RES ovarian
SF-268 CNS = tested on: SF-268 CNS
HOP-62 NSCLC = tested on: HOP-62 NSCLC

In the case of O=C(/C=C/c1ccsc1)c1cccs1, the TGI (OVCAR-8 ovarian) is reported as > 10 µM, the TGI (SNB-75 CNS) is reported as > 100 µM and the TGI (NCI-H226 lung) is reported as > 100 µM. For the same molecule, the TGI (SR leukemia) was > 10 µM, the TGI (786-0 renal) was > 100 µM and the TGI (OVCAR-4 ovarian) was > 100 µM. The TGI (CCRF-CEM leukemia) was 54.6 µM, the TGI (MOLT-4 leukemia) was > 10 µM and the TGI (UACC-62 melanoma) was 88.5 µM. For the same molecule, the TGI (A498 renal) was > 100 µM, the TGI (MDA-MB-231 breast) was > 100 µM and the TGI (NCI-H23 lung) was 68 µM. For the same molecule, the TGI (NCI-H522 lung) was 39.4 µM, the TGI (HS 578T breast) was > 100 µM and the TGI (OVCAR-3 ovarian) was 57.3 µM. The TGI (HCC-2998 colon) was 34.7 µM, the TGI (PC-3 prostate) was > 100 µM and the TGI (OVCAR-5 ovarian) was > 100 µM. The TGI (SNB-19 CNS) was > 100 µM, the TGI (SK-OV-3 ovarian) was > 100 µM and the TGI (UO-31 renal) was 34.3 µM. The TGI (NCI-H460 lung) was > 100 µM, the TGI (ACHN renal) was > 100 µM and the TGI (MDA-N) was > 100 µM. The TGI (HOP-92 NSCLC) was 93.5 µM, the TGI (RXF 393 renal) was 42.9 µM and the TGI (IGROV1 ovarian) was > 100 µM. For the same molecule, the TGI (MCF7 breast) was 52.2 µM, the TGI (M14 melanoma) was 54.4 µM and the TGI (U251 CNS) was 44.2 µM. The TGI (MDA-MB-435) was > 10 µM, the TGI (HCT-116 colon) was 31.1 µM and the TGI (A549 NSCLC) was > 100 µM. For the same molecule, the TGI (HCT-15 colon) was 37 µM, the TGI (CAKI-1 renal) was > 100 µM and the TGI (BT-549 breast) was 48 µM. For the same molecule, the TGI (SK-MEL-28 melanoma) was 46.1 µM, the TGI (SF-295 CNS) was > 100 µM and the TGI (UACC-257 melanoma) was > 100 µM. For the same molecule, the TGI (KM12 colon) was 35.1 µM, the TGI (SF-539 CNS) was > 100 µM and the TGI (MALME-3M melanoma) was > 100 µM. For the same molecule, the TGI (SW-620 colon) was 32.3 µM, the TGI (T-47D breast) was 54.3 µM and the TGI (DU-145 prostate) was > 100 µM. The TGI (COLO 205 colon) was 94.2 µM, the TGI (EKVX NSCLC) was 99.4 µM and the TGI (K-562 leukemia) was > 100 µM. The TGI (TK-10 renal) was > 100 µM, the TGI (SK-MEL-5 melanoma) was 36.3 µM and the TGI (HT29 colon) was > 100 µM. For the same molecule, the TGI (SN12C renal) was 41.9 µM, the TGI (NCI/ADR-RES ovarian) was 44.9 µM and the TGI (SF-268 CNS) was 81.2 µM. For the same molecule, the TGI (HOP-62 NSCLC) was > 100 µM.
